Values of other authors as cited in US11168056B2, “Process for the manufacturing of (6aR,10aR)-7-propyl-6,6a,7,8,9,10,10a,11-octahydro-[1,3]dioxolo[4′,5′:5,6]benzo[1,2-G]quinoline and (4aR,10aR)-1-propyl-1,2,3,4,4a,5,10,10a-octahydro-benzo[G]quinoline-6,7-diol” (H. Lundbeck A/S, priority 2019, dated 2021).
Read-outs that look alike come from different tables or passages of the source.

Tests used:
[1] = rats
[2] = tested on: animal models relevant for Parkinson's Disease; details: various animal models
PD patients = details: intravenous (IV)
[3] = man, after oral dosing
[4] = rats; remark: listed apart in the source

CCCN1CCC[C@@H]2Cc3c(ccc(O)c3O)C[C@H]21 [compound (I), (4aR,10aR)-1-propyl-1,2,3,4,4a,5,10,10a-octahydro-benzo[g]quinoline-6,7-diol]
oral bioavailability [1]: low
efficacy in animal models relevant for Parkinson's Disease [2]: effective

CCCc1cc2c(s1)CN[C@@H]1CCc3cc(OC(C)=O)c(OC(C)=O)cc3[C@@H]21 [Adrogolide]
antiparkinson efficacy (PD patients): comparable to that of L-DOPA
hepatic first-pass metabolism [3]: extensive
oral bioavailability [3]: ~4%

CCCN1CCC[C@@H]2Cc3c(ccc4c3OCO4)C[C@H]21 [compound (Ib), (6aR,10aR)-7-propyl-6,6a,7,8,9,10,10a,11-octahydro-[1,3]dioxolo[4′,5′:5,6]benzo[1,2-g]quinoline]
conversion of compound (Ib) to compound (I) (rat hepatocytes): demonstrated
conversion of compound (Ib) to compound (I) (human hepatocytes): demonstrated
efficacy in animal models relevant for Parkinson's Disease [2]: effective

CCCN1CCC[C@@H]2CC3=C(CCCC3=O)C[C@H]21 [(Ia)]
conversion to the active compound (I) [4]: converted to the active compound (I)
efficacy in animal models relevant for Parkinson's Disease [2]: effective
